# PMC7740640 (Xenobiotica; the fate of foreign compounds in biological …, 2020)
# Like-named read-outs stand apart in the source and are kept apart here.
# Columns and labels:
# CYP2C19 = CYP2C19 (Homo sapiens, UniProt P33261); experiment: Inhibition of C152 metabolism, SS
# CYP2B6 = target: T1, CYP2B6 (Homo sapiens, UniProt P20813); experiment: Inhibition of C152 metabolism, SS
# T1 sequence (P20813 1-491): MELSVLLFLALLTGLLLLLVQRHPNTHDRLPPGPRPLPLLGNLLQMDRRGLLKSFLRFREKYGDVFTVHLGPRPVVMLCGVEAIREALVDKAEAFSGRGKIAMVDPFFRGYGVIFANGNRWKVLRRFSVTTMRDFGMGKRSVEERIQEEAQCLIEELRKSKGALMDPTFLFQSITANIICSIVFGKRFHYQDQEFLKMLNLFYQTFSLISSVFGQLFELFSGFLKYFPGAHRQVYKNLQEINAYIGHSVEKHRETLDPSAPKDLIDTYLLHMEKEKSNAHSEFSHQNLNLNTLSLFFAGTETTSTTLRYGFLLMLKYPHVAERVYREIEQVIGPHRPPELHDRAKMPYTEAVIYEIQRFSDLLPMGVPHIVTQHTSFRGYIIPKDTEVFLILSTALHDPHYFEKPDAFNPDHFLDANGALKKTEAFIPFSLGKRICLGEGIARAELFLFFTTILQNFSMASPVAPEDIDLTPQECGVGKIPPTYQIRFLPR
# [1] = system: human liver microsomes (HLM); experiment: Inhibition of C152 metabolism, HLM; format: biochemical; settings: 30 μM C152 as substrate
# CYP3A4 = CYP3A4 (Homo sapiens, UniProt P08684); experiment: Inhibition of C152 metabolism, SS
# CYP1A2 = target: T2, CYP1A2 (Homo sapiens, UniProt P05177); experiment: C152 metabolism; format: in vitro ADME; settings: SS(1A2); initial substrate C152 28 μM; scanning fluorimetry
# T2 sequence (P05177 2-516 limits assumed): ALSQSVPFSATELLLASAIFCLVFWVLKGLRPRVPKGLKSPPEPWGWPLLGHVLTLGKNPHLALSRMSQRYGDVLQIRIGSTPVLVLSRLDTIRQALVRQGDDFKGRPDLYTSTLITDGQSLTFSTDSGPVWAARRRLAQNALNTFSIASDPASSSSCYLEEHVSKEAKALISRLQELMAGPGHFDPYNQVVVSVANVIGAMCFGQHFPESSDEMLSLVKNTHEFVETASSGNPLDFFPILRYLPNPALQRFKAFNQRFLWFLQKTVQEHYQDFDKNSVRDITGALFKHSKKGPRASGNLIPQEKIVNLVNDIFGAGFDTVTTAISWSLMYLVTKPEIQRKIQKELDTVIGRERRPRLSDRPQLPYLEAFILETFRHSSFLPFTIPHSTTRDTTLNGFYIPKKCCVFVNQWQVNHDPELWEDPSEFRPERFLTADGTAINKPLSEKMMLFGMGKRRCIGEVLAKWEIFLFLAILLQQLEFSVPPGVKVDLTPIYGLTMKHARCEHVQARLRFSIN
# [2] = SS(2B6), 30 μM C152 as substrate
# [3] = SS(3A4), 30 μM C152 as substrate
# Chain of CYP3A4 (P08684 2-503 limits assumed): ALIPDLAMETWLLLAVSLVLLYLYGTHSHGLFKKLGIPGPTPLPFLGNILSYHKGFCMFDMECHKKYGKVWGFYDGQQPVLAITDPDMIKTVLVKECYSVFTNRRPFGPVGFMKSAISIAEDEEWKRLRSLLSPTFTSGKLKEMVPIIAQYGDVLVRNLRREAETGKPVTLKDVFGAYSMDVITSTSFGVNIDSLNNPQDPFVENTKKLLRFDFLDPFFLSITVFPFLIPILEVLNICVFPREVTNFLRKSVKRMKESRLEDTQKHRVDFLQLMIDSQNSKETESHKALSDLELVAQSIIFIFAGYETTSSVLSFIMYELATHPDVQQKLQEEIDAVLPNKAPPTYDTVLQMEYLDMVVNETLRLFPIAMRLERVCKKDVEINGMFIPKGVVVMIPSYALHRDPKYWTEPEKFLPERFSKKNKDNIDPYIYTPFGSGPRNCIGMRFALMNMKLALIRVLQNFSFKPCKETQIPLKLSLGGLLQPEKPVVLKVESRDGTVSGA
# Chain of CYP2C19 (P33261 whole entry): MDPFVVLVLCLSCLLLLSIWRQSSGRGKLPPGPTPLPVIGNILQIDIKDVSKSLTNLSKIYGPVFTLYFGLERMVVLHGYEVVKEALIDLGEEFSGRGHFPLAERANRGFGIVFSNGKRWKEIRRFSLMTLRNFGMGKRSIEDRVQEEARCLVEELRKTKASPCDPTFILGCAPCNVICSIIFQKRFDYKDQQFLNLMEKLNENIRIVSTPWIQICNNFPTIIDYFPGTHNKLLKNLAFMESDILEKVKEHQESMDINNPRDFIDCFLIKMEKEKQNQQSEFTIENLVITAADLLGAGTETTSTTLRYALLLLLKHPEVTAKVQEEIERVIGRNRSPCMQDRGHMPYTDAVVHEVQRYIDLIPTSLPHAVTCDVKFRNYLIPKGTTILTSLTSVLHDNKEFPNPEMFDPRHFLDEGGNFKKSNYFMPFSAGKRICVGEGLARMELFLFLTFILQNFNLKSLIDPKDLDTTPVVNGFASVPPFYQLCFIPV
SMILES,IC50 (CYP2C19) [µM],IC50 [1] [µM],IC50 (CYP2B6) [µM],Inhibition (maximal amplitude) [1] [%],also measured
"Clc1ccccc1C(c1ccccc1)(c1ccccc1)n1ccnc1 [CTZ, clotrimazole]",0.2 ± 0.11,–,–,–,–
"CC[C@@]1(c2ccccc2)NC(=O)N(Cc2ccccc2)C1=O [BNVL, (S)-(+)-N-3-benzylnirvanol]",–,0.51 ± 0.03,–,–,IC50 (CYP2B6; [2]): 8.5 ± 2.3 µM; Inhibition (maximal amplitude) (CYP2B6; [2]): 81±7%; IC50 (CYP3A4; [3]): 27 ± 3 µM; Inhibition (maximal amplitude) (CYP3A4; [3]): 59±10%
"CC(=O)N1CCN(c2ccc(OCC3COC(Cn4ccnc4)(c4ccc(Cl)cc4Cl)O3)cc2)CC1 (stereo not drawn) [KCZ, ketoconazole]",–,1.9 ± 0.2,9.5 ± 2.8,89±7,–
"Clc1ccc(Cc2ccncc2)cc1 [CBP, 4-(4-Chlorobenzyl)pyridine]",215 ± 118,225 ± 30,0.038 ± 0.016,88±12,IC50 (CYP3A4): 225 ± 73 µM
"CNc1ccc2c(C(F)(F)F)cc(=O)oc2c1 [DC152, 7-methylamino-4-trifluoromethyl coumarin]",–,–,–,–,maximal level of formation of DC152 (CYP1A2): ~ 4 μM
